Experimental data published in patent US6337417B1, “N-phenyltetrahydrophthalamic acid derivatives, methods of producing same, and herbicides containing same as effective components” (Central Glass Co., Ltd., priority 1994, dated 2002).

Legend:
Assay type in all cases: in vivo
Parameters in all cases: key: 5: completely killed; 4: seriously injured; 3: considerably injured; 2: somewhat injured; 1: slightly injured; 0: not injured (normally grown)
[1] = tested on: mehishiba (henry crabgrass, Digitaria cliaris); experiment: Experiment 8 foliage treatment: mehishiba; conditions: foliage spray of wettable powder suspension, evaluated 4 weeks after treatment
Experimental: (§1) Upon seedling stage (two- or three-leaved stage) of rice, cockspur (Panicum crus-galli), garden radish, aobiyu (slender amaranth, Amaranthus viridis) and mehishiba (henry crabgrass, Digitaria cliaris) which were grown on a cultivated soil put in pots of 1/15500 ares, a selected compound obtained in a manner analogous to Example 14, in suspended wettable powder, was sprayed to each plant. After that, the pots were kept in a glass chamber to allow each plant to grow, and after the lapse of 4 weeks from the treatment with the selected compounds the herbicidal effects were evaluated. The evaluation of the herbicidal effects was similarly conducted as to that of Experiment 1.

[2] = tested on: ooinutade (pale smartweed, Persicaria lapathifolia); experiment: Experiment 9 foliage treatment: ooinutade; conditions: foliage spray of wettable powder suspension, evaluated 4 weeks after treatment
Experimental: as §1, with “ichibi (velvetleaf, Abutilon theophrasti), onamomi (heartleaf cocklebur, Xanthium strumarium) (4L stage), noasagao (blue morningglory, Ipomoea indica)” for “rice, cockspur (Panicum crus-galli), garden radish, aobiyu (slender amaranth, Amaranthus viridis)”, “ooinutade (pale smartweed, Persicaria lapathifolia)” for “mehishiba (henry crabgrass, Digitaria cliaris)”, “1/8850” for “1/15500”, “as” for “as to”

[3] = tested on: ichibi (velvetleaf, Abutilon theophrasti); experiment: Experiment 9 foliage treatment: ichibi; conditions: foliage spray of wettable powder suspension, evaluated 4 weeks after treatment
Experimental: as §1, with “ichibi (velvetleaf, Abutilon theophrasti), onamomi (heartleaf cocklebur, Xanthium strumarium) (4L stage), noasagao (blue morningglory, Ipomoea indica)” for “rice, cockspur (Panicum crus-galli), garden radish, aobiyu (slender amaranth, Amaranthus viridis)”, “ooinutade (pale smartweed, Persicaria lapathifolia)” for “mehishiba (henry crabgrass, Digitaria cliaris)”, “1/8850” for “1/15500”, “as” for “as to”

garden radish = experiment: Experiment 8 foliage treatment: garden radish; conditions: foliage spray of wettable powder suspension, evaluated 4 weeks after treatment
Experimental: as §1

rice = experiment: Experiment 8 foliage treatment: rice; conditions: foliage spray of wettable powder suspension, evaluated 4 weeks after treatment
Experimental: as §1

[4] = tested on: cockspur (Panicum crus-galli); experiment: Experiment 8 foliage treatment: cockspur; conditions: foliage spray of wettable powder suspension, evaluated 4 weeks after treatment
Experimental: as §1

broad-leaved weeds = experiment: Experiment 7 flooded soil treatment: broad-leaved weeds; conditions: evaluated 4 weeks after treatment
Excerpt: (§2) Paddy soil (clay loam) was put into a pot so as to have a surface area of 1/15500 ares. Uniformly mixed seeds of several kinds of weeds, viz., nobie (barnyardgrass, Echinochloa spp.), broad-leaved weeds, hotarui (bulrush, Scirpus juncoides) and tamagayatsuri (small-flowered umbrellaplant, Cyperus difformis), were sown in the surface layer of the soil in each pot, and then paddy rice seedlings at the two- or three-leaved stage were transplanted into each pot to a depth of 2 cm, and water was fed into each pot so as to provide a 3 cm deep water layer on the soil surface. After 3 days, in other words at the initial stage of germination of nobie (barnyardgrass, Echinochloa spp.), a predetermined amount of a selected compound obtained in a manner analogous to Example 14 in the form of diluted aqueous solution was dropped into the water layer in each pot. After that, the pots were kept in a glass chamber to allow the paddy rice and the weeds to grow, and after the lapse of 4 weeks from the treatment with the selected compounds, the herbicidal effects and the degree of injury to the paddy rice were evaluated. The evaluation of the herbicidal effects was similarly conducted as that of Experiment 1.

[5] = tested on: onamomi (heartleaf cocklebur, Xanthium strumarium); experiment: Experiment 9 foliage treatment: onamomi; conditions: foliage spray of wettable powder suspension, evaluated 4 weeks after treatment
Experimental: as §1, with “ichibi (velvetleaf, Abutilon theophrasti), onamomi (heartleaf cocklebur, Xanthium strumarium) (4L stage), noasagao (blue morningglory, Ipomoea indica)” for “rice, cockspur (Panicum crus-galli), garden radish, aobiyu (slender amaranth, Amaranthus viridis)”, “ooinutade (pale smartweed, Persicaria lapathifolia)” for “mehishiba (henry crabgrass, Digitaria cliaris)”, “1/8850” for “1/15500”, “as” for “as to”

[6] = tested on: nobie (barnyardgrass, Echinochloa spp.); experiment: Experiment 7 flooded soil treatment: nobie; conditions: evaluated 4 weeks after treatment
Excerpt: as §2

[7] = tested on: tamagayatsuri (small-flowered umbrellaplant, Cyperus difformis); experiment: Experiment 7 flooded soil treatment: tamagayatsuri; conditions: evaluated 4 weeks after treatment
Excerpt: as §2

[8] = tested on: aobiyu (slender amaranth, Amaranthus viridis); experiment: Experiment 8 foliage treatment: aobiyu; conditions: foliage spray of wettable powder suspension, evaluated 4 weeks after treatment
Experimental: as §1

[9] = tested on: noasagao (blue morningglory, Ipomoea indica); experiment: Experiment 9 foliage treatment: noasagao; conditions: foliage spray of wettable powder suspension, evaluated 4 weeks after treatment
Experimental: as §1, with “ichibi (velvetleaf, Abutilon theophrasti), onamomi (heartleaf cocklebur, Xanthium strumarium) (4L stage), noasagao (blue morningglory, Ipomoea indica)” for “rice, cockspur (Panicum crus-galli), garden radish, aobiyu (slender amaranth, Amaranthus viridis)”, “ooinutade (pale smartweed, Persicaria lapathifolia)” for “mehishiba (henry crabgrass, Digitaria cliaris)”, “1/8850” for “1/15500”, “as” for “as to”

[10] = tested on: hotarui (bulrush, Scirpus juncoides); experiment: Experiment 7 flooded soil treatment: hotarui; conditions: evaluated 4 weeks after treatment
Excerpt: as §2

paddy rice = experiment: Experiment 7 flooded soil treatment: injury to paddy rice; conditions: evaluated 4 weeks after treatment
Excerpt: as §2

Row | Compound | Herbicidal Effect mehishiba ([1]; 40 g/10a) | Herbicidal Effect mehishiba ([1]; 80 g/10a) | Herbicidal Effet ooinutade ([2]; 4 g/10a) | Herbicidal Effet ooinutade ([2]; 8 g/10a) | Herbicidal Effet ichibi ([3]; 4 g/10a) | Herbicidal Effet ichibi ([3]; 8 g/10a) | Herbicidal Effect garden radish (garden radish; 40 g/10a) | Herbicidal Effect garden radish (garden radish; 80 g/10a) | Herbicidal Effect rice (rice; 40 g/10a) | Herbicidal Effect rice (rice; 80 g/10a) | Herbicidal Effect cockspur ([4]; 40 g/10a) | Herbicidal Effect cockspur ([4]; 80 g/10a) | Herbicidal Effect broad-leaved weed (broad-leaved weeds; 6.25 g/10a) | Herbicidal Effect broad-leaved weed (broad-leaved weeds; 12.5 g/10a) | Herbicidal Effet onamomi ([5]; 4 g/10a) | Herbicidal Effet onamomi ([5]; 8 g/10a) | Herbicidal Effect nobie ([6]; 6.25 g/10a) | Herbicidal Effect nobie ([6]; 12.5 g/10a) | Herbicidal Effect tamagayatsuri ([7]; 6.25 g/10a) | Herbicidal Effect tamagayatsuri ([7]; 12.5 g/10a) | also measured
1 | C#CC(C)Oc1cc(N(C(=O)C2=C(C(=O)OC)CCCC2)C(=O)c2cccs2)c(F)cc1Cl (racemic) [compound 91, N-[4-chloro-2-fluoro-5-(1-methylproparzyloxy)phenyl]-N-(2-thiophenecarboxy)-3,4,5,6-tetrahydrophthalamic acid methyl ester] | 1 | 1 | 5 | 5 | 5 | 5 | 5 | 5 | 1 | 1 | 1 | 1 | 5 | 5 | 4 | 5 | 5 | 5 | 5 | 5 | Herbicidal Effect aobiyu ([8]; 40 g/10a): 5; Herbicidal Effect aobiyu ([8]; 80 g/10a): 5; Herbicidal Effet noasagao ([9]; 4 g/10a): 4; Herbicidal Effet noasagao ([9]; 8 g/10a): 5; Herbicidal Effect hotarui ([10]; 6.25 g/10a): 4; Herbicidal Effect hotarui ([10]; 12.5 g/10a): 5; Injury of Paddy (paddy rice; 6.25 g/10a): 0; Injury of Paddy (paddy rice; 12.5 g/10a): 0.5
2 | C#CC(C)Oc1cc(N(C(=O)C2=C(C(=O)OC)CCCC2)C(=O)c2ccsc2)c(F)cc1Cl (stereo not shown) [Compound No. 100] | 1 | 1 | 5 | 5 | 5 | 5 | 5 | 5 | 1 | 1 | 1 | 1 | 5 | 5 | 5 | 5 | 5 | 5 | 5 | 5 | Herbicidal Effect aobiyu ([8]; 40 g/10a): 5; Herbicidal Effect aobiyu ([8]; 80 g/10a): 5; Herbicidal Effet noasagao ([9]; 4 g/10a): 5; Herbicidal Effet noasagao ([9]; 8 g/10a): 5; Herbicidal Effect hotarui ([10]; 6.25 g/10a): 5; Herbicidal Effect hotarui ([10]; 12.5 g/10a): 5; Injury of Paddy (paddy rice; 6.25 g/10a): 0.5; Injury of Paddy (paddy rice; 12.5 g/10a): 0.5
3 | C#CC(C)Oc1cc(N(C(=O)C2=C(C(=O)OC)CCCC2)C(=O)c2ccc(Cl)s2)c(F)cc1Cl (stereo not shown) [compound 97] | 1 | 1 | 4 | 5 | 5 | 5 | 5 | 5 | 1 | 1 | 1 | 1 | 5 | 5 | 4 | 4 | 5 | 5 | 4 | 4 | Herbicidal Effect aobiyu ([8]; 40 g/10a): 4; Herbicidal Effect aobiyu ([8]; 80 g/10a): 5; Herbicidal Effet noasagao ([9]; 4 g/10a): 4; Herbicidal Effet noasagao ([9]; 8 g/10a): 4; Herbicidal Effect hotarui ([10]; 6.25 g/10a): 4; Herbicidal Effect hotarui ([10]; 12.5 g/10a): 4; Injury of Paddy (paddy rice; 6.25 g/10a): 0; Injury of Paddy (paddy rice; 12.5 g/10a): 0
4 | C#CC(C)Oc1cc(N(C(=O)C2=C(C(=O)OCCCC)CCCC2)C(=O)c2ccsc2)c(F)cc1Cl (stereo not shown) [compound 102] | 1 | 1 | 4 | 5 | 5 | 5 | 5 | 5 | 1 | 1 | 1 | 1 | 5 | 5 | 5 | 5 | 5 | 5 | 5 | 5 | Herbicidal Effect aobiyu ([8]; 40 g/10a): 5; Herbicidal Effect aobiyu ([8]; 80 g/10a): 5; Herbicidal Effet noasagao ([9]; 4 g/10a): 4; Herbicidal Effet noasagao ([9]; 8 g/10a): 5; Herbicidal Effect hotarui ([10]; 6.25 g/10a): 4; Herbicidal Effect hotarui ([10]; 12.5 g/10a): 4; Injury of Paddy (paddy rice; 6.25 g/10a): 0.5; Injury of Paddy (paddy rice; 12.5 g/10a): 0.5
